The text below walks through data of patent US12157746B2, “Tetrahydro-1H-pyrazino[2,1-a]isoindolylquinoline compounds for the treatment of autoimmune disease” (F. HOFFMANN-LA ROCHE AG, priority 2018, dated 2024).

In the series the target is T1, hERG K+ channel (Homo sapiens, UniProt Q12809).
T1 construct: expressed in transfected cells; host or cells: CHO (Chinese hamster ovary) cells, CHOhERG
Kind of series: hERG channel inhibition assay. It is filed as cell-based. Conditions: patch-clamp (voltage-clamp, whole-cell); for IC50: CHO cells expressing hERG; for IC20: human, CHO cells stably expressing hERG. How it is done:
hERG Channel Inhibition Assay
The hERG K^+ channels were cloned in humans and stably expressed in a CHO (Chinese hamster ovary) cell line. CHOhERG cells were used for patch-clamp (voltage-clamp, whole-cell) experiments. Cells were stimulated by a voltage pattern to activate hERG channels and conduct IKhERG currents (rapid delayed outward rectifier potassium current of the hERG channel). After the cells were stabilized for a few minutes, the amplitude and kinetics of IKhERG were recorded at a stimulation frequency of 0.1 Hz (6 bpm). Thereafter, the test compound was added to the preparation at increasing concentrations. For each concentration, an attempt was made to reach a steady-state effect, usually, this was achieved within 3-10 min at which time the next highest concentration was applied. The amplitude and kinetics of IKhERG are recorded in each concentration of the drug which were compared to the control values (taken as 100%). (references: Redfem W S, Carlsson L, Davis A S, Lynch W G, MacKenzie I, Palethorpe S, Siegl P K, Strang I, Sullivan A T, Wallis R, Camm A J, Hammond T G. 2003; Relationships between preclinical cardiac electrophysiology, clinical QT interval prolongation and torsade de pointes for a broad range of drugs: evidence for a provisional safety margin in drug development. Cardiovasc. Res. 58:32-45, Sanguinetti M C, Tristani-Firouzi M. 2006; hERG potassium channels and cardiac arrhythmia. Nature 440:463-469, Webster R, Leishman D, Walker D. 2002; Towards a drug concentration effect relationship for QT prolongation and torsades de pointes. Curr. Opin. Drug Discov. Devel. 5:116-26).
(hERG is a cardiac potassium channel; its block is linked to QT prolongation.)

The structures appear in SMILES notation. Some results are limits rather than exact numbers.

T1 sequence (Q12809 whole entry): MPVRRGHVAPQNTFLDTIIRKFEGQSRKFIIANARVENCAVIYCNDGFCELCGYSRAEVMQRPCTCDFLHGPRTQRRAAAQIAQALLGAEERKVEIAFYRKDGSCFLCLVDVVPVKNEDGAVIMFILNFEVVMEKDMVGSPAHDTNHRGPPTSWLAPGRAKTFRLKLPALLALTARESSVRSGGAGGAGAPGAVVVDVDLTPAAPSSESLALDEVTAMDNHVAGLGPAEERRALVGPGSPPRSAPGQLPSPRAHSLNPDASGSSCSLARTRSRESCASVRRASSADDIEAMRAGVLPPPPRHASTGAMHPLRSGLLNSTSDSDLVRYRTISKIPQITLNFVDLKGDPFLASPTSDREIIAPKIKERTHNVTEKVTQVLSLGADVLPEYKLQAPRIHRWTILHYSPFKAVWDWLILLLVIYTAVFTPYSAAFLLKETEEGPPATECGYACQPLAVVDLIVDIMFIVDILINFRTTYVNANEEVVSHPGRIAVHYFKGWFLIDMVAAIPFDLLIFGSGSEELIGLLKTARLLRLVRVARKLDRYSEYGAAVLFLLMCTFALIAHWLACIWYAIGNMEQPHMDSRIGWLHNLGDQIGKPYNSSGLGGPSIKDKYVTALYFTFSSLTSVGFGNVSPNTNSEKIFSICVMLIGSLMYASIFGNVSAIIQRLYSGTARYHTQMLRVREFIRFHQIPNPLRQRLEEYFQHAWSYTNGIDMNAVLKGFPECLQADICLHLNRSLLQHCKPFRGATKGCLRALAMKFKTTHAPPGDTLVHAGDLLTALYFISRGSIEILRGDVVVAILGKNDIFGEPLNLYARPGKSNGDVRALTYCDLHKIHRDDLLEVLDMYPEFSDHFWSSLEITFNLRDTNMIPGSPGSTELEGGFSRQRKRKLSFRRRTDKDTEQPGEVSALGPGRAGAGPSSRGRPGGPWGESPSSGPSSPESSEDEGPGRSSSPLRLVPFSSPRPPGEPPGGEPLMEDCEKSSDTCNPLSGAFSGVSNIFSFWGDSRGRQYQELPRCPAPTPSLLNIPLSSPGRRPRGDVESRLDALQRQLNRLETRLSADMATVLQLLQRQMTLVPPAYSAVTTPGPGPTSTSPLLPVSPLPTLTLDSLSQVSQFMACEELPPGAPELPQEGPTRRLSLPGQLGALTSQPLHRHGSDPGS

On to `C[C@@H]1CN(c2ccc(C#N)c3ncccc23)CC2c3ccc(N4C[C@H](N)[C@@H](O)C4)cc3CN21` (relative stereo) [Example 21, 5-[(4R,10bS)-8-[trans-3-amino-4-hydroxy-pyrrolidin-1-yl]-4-methyl-3,4,6,10b-tetrahydro-1H-pyrazino[2,1-a]isoindol-2-yl]quinoline-8-carbonitrile], for which the IC50 (as a rule, the concentration that gives 50% inhibition) was more than 20 µM and the IC20 (usually the concentration at which the effect reaches the 20% level) was more than 10 µM.

In turn, `C[C@@H]1CN(c2ccc(C#N)c3ncccc23)C[C@@H]2c3ccc(N4CC5(CNC5)C4)cc3CN12` [Example 36, 5-[(4R,10bS)-8-(2,6-diazaspiro[3.3]heptan-2-yl)-4-methyl-3,4,6,10b-tetrahydro-1H-pyrazino[2,1-a]isoindol-2-yl]quinoline-8-carbonitrile] showed an IC50 of more than 20 µM and an IC20 of more than 10 µM.

For `C[C@@H]1CN(c2ccc(C#N)c3ncccc23)C[C@@H]2c3ccc(N4C[C@@H](N)[C@H](O)C4)cc3CN12` (single isomer, unassigned) [Example 40B], the IC50 is more than 20 µM and the IC20 was more than 10 µM.

The compound `C[C@@H]1CN(c2ccc(C#N)c3ncccc23)C[C@@H]2c3ccc(N4CCNC[C@H](O)C4)cc3CN12` [Example 53A, 5-[(4R,10bS)-8-[(6S)-6-hydroxy-1,4-diazepan-1-yl]-4-methyl-3,4,6,10b-tetrahydro-1H-pyrazino[2,1-a]isoindol-2-yl]quinoline-8-carbonitrile] registered an IC50 of more than 20 µM and an IC20 of 6.6 µM.

As for `CN[C@H]1CN(c2ccc3c(c2)CN2[C@H](C)CN(c4ccc(C#N)c5ncccc45)C[C@H]32)C[C@@H]1O` [Example 42, 5-[(4R,10bS)-8-[(3S,4S)-3-hydroxy-4-(methylamino)pyrrolidin-1-yl]-4-methyl-3,4,6,10b-tetrahydro-1H-pyrazino[2,1-a]isoindol-2-yl]quinoline-8-carbonitrile], the IC50 is more than 20 µM and the 20% effect level (IC20) was put at 6.7 µM.

`C[C@@H]1CN(c2ccc(C#N)c3ncccc23)C[C@@H]2c3ccc(N4CC(N)C4)cc3CN12` [Example 22, 5-[(4R,10bS)-8-(3-aminoazetidin-1-yl)-4-methyl-3,4,6,10b-tetrahydro-1H-pyrazino[2,1-a]isoindol-2-yl]quinoline-8-carbonitrile] had an IC50 of more than 20 µM and an IC20 of 5 µM.

The compound `CN[C@@H]1CN(c2ccc3c(c2)CN2[C@H](C)CN(c4ccc(C#N)c5ncccc45)C[C@H]32)C[C@H]1O` [Example 43, 5-[(4R,10bS)-4-methyl-8-[(3R,4R)-3-hydroxy-4-(methylamino)pyrrolidin-1-yl]-3,4,6,10b-tetrahydro-1H-pyrazino[2,1-a]isoindol-2-yl]quinoline-8-carbonitrile] displayed an IC50 of more than 20 µM and an IC20 of 5.2 µM.

In the case of `C[C@@H]1CN(c2ccc(C#N)c3ncccc23)C[C@@H]2c3ccc(NC4CNC4)cc3CN12` [Example 28, 5-[(4R,10S)-8-(azetidin-3-ylamino)-4-methyl-3,4,6,10b-tetrahydro-1H-pyrazino[2,1-a]isoindol-2-yl]quinoline-8-carbonitrile], the IC50 was more than 20 µM and the IC20 is more than 10 µM.

`C[C@@H]1CN(c2ccc(C#N)c3ncccc23)C[C@@H]2c3ccc(N4CC5(CN(C)C5)C4)cc3CN12` [Example 38, 5-[(4R,10bS)-4-methyl-8-(6-methyl-2,6-diazaspiro[3.3]heptan-2-yl)-3,4,6,10b-tetrahydro-1H-pyrazino[2,1-a]isoindol-2-yl]quinoline-8-carbonitrile] returned an IC50 of more than 20 µM and an IC20 of more than 10 µM.

As to `C[C@@H]1CN(c2ccc(C#N)c3ncccc23)C[C@@H]2c3ccc(N4C[C@H](N)[C@@](C)(O)C4)cc3CN12` [Example 45B, 5-[(4R,10bS)-8-[(3S,4S)-4-amino-3-hydroxy-3-methyl-pyrrolidin-1-yl]-4-methyl-3,4,6,10b-tetrahydro-1H-pyrazino[2,1-a]isoindol-2-yl]quinoline-8-carbonitrile], the IC50 is more than 20 µM and the IC20 is more than 10 µM.

For the compound `C[C@@H]1CN(c2ccc(C#N)c3ncccc23)C[C@@H]2c3ccc(N4CCOCC(N)C4)cc3CN12` (stereo partly drawn) [Example 54, 5-[(4R,10bS)-8-(6-amino-1,4-oxazepan-4-yl)-4-methyl-3,4,6,10b-tetrahydro-1H-pyrazino[2,1-a]isoindol-2-yl]quinoline-8-carbonitrile], the IC50 was more than 20 µM and the IC20 is more than 10 µM.

On to `C[C@@H]1CN(c2ccc(C#N)c3ncccc23)C[C@@H]2c3ccc(N4C[C@@H](N)[C@](C)(O)C4)cc3CN12` [Example 45A, 5-[(4R,10bS)-8-[(3R,4R)-4-amino-3-hydroxy-3-methyl-pyrrolidin-1-yl]-4-methyl-3,4,6,10b-tetrahydro-1H-pyrazino[2,1-a]isoindol-2-yl]quinoline-8-carbonitrile], for which the IC50 is more than 20 µM and the IC20 came out at 7.4 µM.

`C[C@@H]1CN(c2ccc(C#N)c3ncccc23)C[C@@H]2c3ccc(NC4CNCCOC4)cc3CN12` (stereo partly drawn) [Example 56, 5-[(4R,10bS)-4-methyl-8-(1,4-oxazepan-6-ylamino)-3,4,6,10b-tetrahydro-1H-pyrazino[2,1-a]isoindol-2-yl]quinoline-8-carbonitrile] gave a 50% inhibitory concentration (IC50) of more than 20 µM and an IC20 of more than 10 µM.

`C[C@@H]1CN(c2ccc(C#N)c3ncccc23)C[C@@H]2c3ccc(N4CCNCC(O)C4)cc3CN12` (stereo partly drawn) [Example 15, 5-[(4R,10bS)-8-(6-hydroxy-1,4-diazepan-1-yl)-4-methyl-3,4,6,10b-tetrahydro-1H-pyrazino[2,1-a]isoindol-2-yl]quinoline-8-carbonitrile] registered an IC50 of more than 20 µM and an IC20 of more than 10 µM.

`C[C@@H]1CN(c2ccc(C#N)c3ncccc23)C[C@@H]2c3ccc(N4C[C@H]5NCCO[C@@H]5C4)cc3CN12` [Example 44, 5-[(4R,10bS)-4-methyl-8-[(4aR,7aR)-3,4,4a,5,7,7a-hexahydro-2H-pyrrolo[3,4-b][1,4]oxazin-6-yl]-3,4,6,10b-tetrahydro-1H-pyrazino[2,1-a]isoindol-2-yl]quinoline-8-carbonitrile] came in with an IC50 of more than 20 µM and an IC20 of 6.4 µM.

In turn, `C[C@@H]1CN(c2ccc(C#N)c3ncccc23)C[C@@H]2c3ccc(N4CCN[C@H](CO)C4)cc3CN12` [Example 12, 5-[(4R,10bS)-8-[(3S)-3-(hydroxymethyl)piperazin-1-yl]-4-methyl-3,4,6,10b-tetrahydro-1H-pyrazino[2,1-a]isoindol-2-yl]quinoline-8-carbonitrile] had a half-maximal inhibitory concentration (IC50) of more than 20 µM and an IC20 of more than 10 µM.

`C[C@@H]1CN(c2ccc(C#N)c3ncccc23)C[C@@H]2c3ccc(N4CC5(CNCCO5)C4)cc3CN12` [Example 35, 5-[(4R,10bS)-4-methyl-8-(5-oxa-2,8-diazaspiro[3.5]nonan-2-yl)-3,4,6,10b-tetrahydro-1H-pyrazino[2,1-a]isoindol-2-yl]quinoline-8-carbonitrile] registered an IC50 of more than 20 µM and a 20% effect concentration (IC20) of more than 10 µM.

In turn, `C[C@@H]1CN(c2ccc(C#N)c3ncccc23)C[C@@H]2c3ccc(NCCN(C)C)cc3CN12` [Example 26, 5-[(4R,10bS)-8-[2-(dimethylamino)ethylamino]-4-methyl-3,4,6,10b-tetrahydro-1H-pyrazino[2,1-a]isoindol-2-yl]quinoline-8-carbonitrile] displayed an IC50 of more than 20 µM and an IC20 of 5 µM.

As to `C[C@@H]1CN(c2ccc(C#N)c3ncccc23)C[C@@H]2c3ccc(N4CC5(CCN5)C4)cc3CN12` [Example 37, 5-[(4R,10bS)-8-(1,6-diazaspiro[3.3]heptan-6-yl)-4-methyl-3,4,6,10b-tetrahydro-1H-pyrazino[2,1-a]isoindol-2-yl]quinoline-8-carbonitrile], the IC50 is more than 20 µM and the 20% effect concentration (IC20) came to 8.6 µM.

As for `CO[C@H]1CN(c2ccc3c(c2)CN2[C@H](C)CN(c4ccc(C#N)c5ncccc45)C[C@H]32)C[C@@H]1N` (relative stereo) [Example 16, 5-[(4R,10bS)-8-[trans-3-amino-4-methoxy-pyrrolidin-1-yl]-4-methyl-3,4,6,10b-tetrahydro-1H-pyrazino[2,1-a]isoindol-2-yl]quinoline-8-carbonitrile], the IC50 is more than 20 µM and the IC20 is more than 10 µM.

In turn, `COC12CNCC1CN(c1ccc3c(c1)CN1[C@H](C)CN(c4ccc(C#N)c5ncccc45)C[C@H]31)C2` (stereo partly drawn) [Example 41, 5-[(4R,10bS)-8-(3a-methoxy-1,2,3,4,6,6a-hexahydropyrrolo[3,4-c]pyrrol-5-yl)-4-methyl-3,4,6,10b-tetrahydro-1H-pyrazino[2,1-a]isoindol-2-yl]quinoline-8-carbonitrile] displayed an IC50 of more than 20 µM and an IC20 of more than 10 µM.
